This note sets out measurements from US7326732B2, “EP2 receptor agonists” (Pharmagene Laboratories Limited, priority 2004, dated 2008).

Each structure is given as a SMILES string.

One test deals with T1, human EP2 receptor (Homo sapiens, UniProt P43116).
T1 construct: expressed in transfected cells
Description: Binding ability to human EP receptors ([3H]PGE2 displacement), EP2. The following applies: membranes expressing human EP2; [3H]PGE2 3 nM; Cheng-Prusoff; read-out: pKi (M) EP2 (converted). As for the experimental part:
(§1) Membranes were prepared from cells stably transfected with human EP receptor cDNA. In brief, cells were cultured to confluency, scraped from culture flasks, and centrifuged (800 g, 8 minutes, 4° C.). Cells were twice washed in ice cold homogenisation buffer containing 10 mMTris-HCl, 1 mM EDTA.2Na, 250 mM sucrose, 1 mM PMSF, 0.3 mM indomethacin, pH 7.4, homogenised and re-centrifuged as before. The supernatant was stored on ice and pellets re-homogenised and re-spun. Supernatants were pooled and centrifuged at 40000 g, 10 minutes, 4° C. Resultant membrane pellets were stored at −80° C. until use. For assay, membranes expressing human EP4, EP3, EP2 or EP1 receptors were incubated in Millipore (MHVBN45) plates containing assay buffer, radiolabelled [^3H]PGE2 and 0.1 to 10 000 nM concentrations of compounds. Incubations were performed at suitable temperatures and for suitable times to allow equilibrium to be reached. Non-specific binding was determined in the presence of 10 uM PGE2. Bound and free radiolabel was separated by vacuum manifold filtration using appropriate wash buffers, and bound radiolabel was determined by scintillation counting. Constituents of each of the buffers are included in table 1 below. […] Raven Press, New York, 2nd edition.

The target of another test is T2, human EP4 receptor (Homo sapiens, UniProt P35408).
T2 construct: expressed in transfected cells
T2 sequence (P35408 whole entry): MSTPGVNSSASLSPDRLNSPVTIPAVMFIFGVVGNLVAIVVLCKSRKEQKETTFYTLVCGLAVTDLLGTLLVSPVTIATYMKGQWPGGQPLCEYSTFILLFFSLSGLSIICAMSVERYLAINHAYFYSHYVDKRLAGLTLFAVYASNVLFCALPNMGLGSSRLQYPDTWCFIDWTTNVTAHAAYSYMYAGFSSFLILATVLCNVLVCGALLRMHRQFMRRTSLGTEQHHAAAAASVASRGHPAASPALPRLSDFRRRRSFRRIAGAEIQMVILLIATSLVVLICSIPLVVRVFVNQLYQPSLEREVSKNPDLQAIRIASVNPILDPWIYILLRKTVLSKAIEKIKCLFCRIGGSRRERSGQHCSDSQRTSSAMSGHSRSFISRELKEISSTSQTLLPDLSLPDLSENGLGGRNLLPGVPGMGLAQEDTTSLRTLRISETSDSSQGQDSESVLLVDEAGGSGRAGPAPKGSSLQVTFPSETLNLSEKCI
In words: Binding ability to human EP receptors ([3H]PGE2 displacement), EP4. To be noted: membranes expressing human EP4; [3H]PGE2 1 nM; Cheng-Prusoff; read-out: pKi (M) EP4 (converted). As for the experimental part: as §1

The target of another test is T3, human EP3 receptor (Homo sapiens, UniProt P43115).
T3 construct: expressed in transfected cells
T3 sequence (P43115 1-390): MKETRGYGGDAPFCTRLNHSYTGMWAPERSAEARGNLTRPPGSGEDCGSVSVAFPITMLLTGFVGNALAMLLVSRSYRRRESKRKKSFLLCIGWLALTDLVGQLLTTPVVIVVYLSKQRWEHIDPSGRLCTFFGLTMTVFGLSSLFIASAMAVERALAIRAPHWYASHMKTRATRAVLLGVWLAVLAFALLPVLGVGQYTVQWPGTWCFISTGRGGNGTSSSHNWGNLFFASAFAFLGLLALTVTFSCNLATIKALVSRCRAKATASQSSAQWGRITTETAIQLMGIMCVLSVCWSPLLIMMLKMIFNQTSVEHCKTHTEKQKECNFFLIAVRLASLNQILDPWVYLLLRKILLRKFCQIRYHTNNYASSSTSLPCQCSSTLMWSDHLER
In words: Binding ability to human EP receptors ([3H]PGE2 displacement), EP3. To be noted: membranes expressing human EP3; [3H]PGE2 2.5 nM; Cheng-Prusoff; read-out: pKi (M) EP3 (converted). The method, then:
as §1

In test [1] the target is T4, human EP2 prostanoid receptors (Homo sapiens, UniProt P43116).
T4 construct: expressed in transfected cells; host or cells: HEK-293
T4 sequence (P43116 whole entry): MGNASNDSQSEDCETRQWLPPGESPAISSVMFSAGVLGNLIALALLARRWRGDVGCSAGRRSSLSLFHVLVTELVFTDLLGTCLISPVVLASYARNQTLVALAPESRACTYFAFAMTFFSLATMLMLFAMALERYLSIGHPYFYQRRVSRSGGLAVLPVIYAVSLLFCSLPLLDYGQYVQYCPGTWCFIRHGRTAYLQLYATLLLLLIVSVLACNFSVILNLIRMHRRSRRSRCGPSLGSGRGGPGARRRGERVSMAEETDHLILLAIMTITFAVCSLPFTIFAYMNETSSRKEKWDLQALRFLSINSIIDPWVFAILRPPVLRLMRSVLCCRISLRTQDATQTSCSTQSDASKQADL
In words: Agonist activity at recombinant human EP2 prostanoid receptors (cAMP in HEK-293 clones). The class given is cell-based. The following applies: for EC50: HEK-293 stably transfected with human EP2, cAMP accumulation, read-out: pEC50 EP2 (converted); for activity (EP2 part): functional classification at EP2. The method, then: Culture media was Minimal essential media (MEM), supplemented with 10% foetal bovine serum, 100 U/ml penicillin, […] streptomycin, 2.5 μg/ml fungizone, 2mM glutamine. Cells were cultured to confluency (3-4 days) prior to use. Culture media was removed, and confluent cells washed three times in MEM. […] Cells were then stimulated by the addition of 25 μl of PGE2 or agonists prepared in assay buffer. In antagonist studies, cells were pre-incubated with compounds for 30 minutes prior to PGE2-mediated stimulation Plates were incubated for 15 min at 37° C., before termination of the reaction by the addition of 25 μl 1M HCl. The plate was then frozen at -20° C. overnight before determination of cAMP concentration. Stimulated cAMP levels were determined by radioligand displacement binding. In brief, plates were thawed rapidly in a waterbath, and the samples neutralised by the addition of 25 μl 1M NaOH. 30 μl was transferred to Millipore plates pre-coated with 0.5% Polyethylenimine (PEI). Samples were diluted by addition of 90 μl cAMP determination buffer (50 mM Tris, 5 mM EDTA, pH 7.0). […] 15 μl of 2 nM (final concentration) [^3H] cAMP, and 15 μl of 3'5'-cAMP protein kinase (8 μg/well final concentration) prepared in cAMP determination buffer containing 0.1% BSA, were added to each well. Plates were incubated on ice for 2 hours, before bound and free radiolabel were separated by vacuum filtration harvesting using the Millipore vacuum manifold, using ice cold water as the termination buffer. The sealing mat was removed from the Millipore plates, and the filters allowed to dry overnight. 50 μl Microscint 0 (Packard Bioscience) was added to each well, and the plate counted using the Micro-Beta Trilux topcount ^3H program. cAMP accumulation was determined from the standard curve, and values calculated in pmoles cAMP/well. Antagonists affinities (pA2 values) were determined assuming a slope of unity and the […]-Schild equation, where pA2=log [concentration ratio-1]-log[antagonist].

T1 sequence (P43116 whole entry): as above

Regarding `O=C(O)Cc1cccc(NC(=O)c2ccc(-c3cccc4ccccc34)o2)c1` [Compound 31, {3-[(5-Naphthalen-1-yl-furan-2-carbonyl)-amino]-phenyl}-acetic acid], the Ki was < 1e-06 M at human EP2 receptor, < 1e-06 M on human EP4 receptor and > 1e-05 M at human EP3 receptor. Also, the EC50 in test [1] is < 1 µM. Further, in test [1], the “activity (EP2 part)” value is recorded as “EP2 agonist”.
On to `CC(C)c1cccc(-c2ccc(C(=O)Nc3cccc(CC(=O)O)c3)o2)c1` [Compound 34, (3-{[5-(3-Isopropyl-phenyl)-furan-2-carbonyl]-amino}-phenyl)-acetic acid], for which the Ki on human EP2 receptor was < 1e-06 M; at human EP4 receptor, < 1e-06 M; on human EP3 receptor, > 1e-05 M. The EC50 in test [1] was < 1 µM. In addition, the “activity (EP2 part)” value in test [1] is “EP2 agonist”.
Take `O=C(O)Cc1cccc(NC(=O)c2ccc(-c3ccc4c(c3)OCO4)o2)c1` [Compound 36, {3-[(5-Benzo[1,3]dioxol-5-yl-furan-2-carbonyl)-amino]-phenyl}-acetic acid]: the values for the Ki on human EP2 receptor, on human EP4 receptor and on human EP3 receptor were < 1e-06 M, > 1e-05 M and > 1e-05 M, respectively. The EC50 in test [1] is < 0.1 µM. Also, the “activity (EP2 part)” value in test [1] is given as “EP2 agonist”.
As for `O=C(O)Cc1cccc(NC(=O)c2ccc(-c3cccc(Cl)c3Cl)o2)c1` [Compound 37, (3-{[5-(2,3-Dichloro-phenyl)-furan-2-carbonyl]-amino}-phenyl)-acetic acid], the Ki was < 1e-06 M on human EP2 receptor, > 1e-05 M at human EP4 receptor and > 1e-05 M at human EP3 receptor. Further, the EC50 in test [1] was < 1 µM. Further, in test [1], the “activity (EP2 part)” value is recorded as “EP2 agonist”.
`O=C(O)Cc1cccc(NC(=O)c2ccc(-c3cccc(Cl)c3)o2)c1` [Compound 39, (3-{[5-(3-Chloro-phenyl)-furan-2-carbonyl]-amino}-phenyl)-acetic acid]: the Ki is < 1e-07 M at human EP2 receptor, > 1e-05 M at human EP4 receptor and > 1e-05 M at human EP3 receptor. The EC50 in test [1] was < 0.1 µM. In test [1], the “activity (EP2 part)” value is recorded as “EP2 agonist”.
As for `O=C(O)Cc1cccc(NC(=O)c2ccc(-c3ccc(Cl)cc3)o2)c1` [Compound 40, (3-{[5-(4-Chloro-phenyl)-furan-2-carbonyl]-amino}-phenyl)-acetic acid], the Ki is < 1e-06 M at human EP2 receptor, > 1e-05 M on human EP4 receptor and > 1e-05 M on human EP3 receptor. The EC50 in test [1] is < 0.1 µM. Also, in test [1], the “activity (EP2 part)” value was “EP2 agonist”.
With `O=C(O)Cc1cccc(NC(=O)c2ccc(-c3ccc4[nH]ccc4c3)o2)c1` [Compound 41], the Ki was < 1e-06 M at human EP2 receptor, > 1e-05 M at human EP4 receptor and > 1e-05 M at human EP3 receptor. The EC50 in test [1] is < 1 µM. Moreover, the “activity (EP2 part)” value in test [1] is “EP2 agonist”.
Take `O=C(O)Cc1cccc(NC(=O)c2ccc(-c3ccc(F)cc3)o2)c1` [Compound 42, (3-{[5-(4-Fluoro-phenyl)-furan-2-carbonyl]-amino}-phenyl)-acetic acid]: the Ki was < 1e-06 M at human EP2 receptor, > 1e-05 M at human EP4 receptor and > 1e-05 M on human EP3 receptor. In test [1], the EC50 was < 0.1 µM. Also, in test [1], the “activity (EP2 part)” value is “EP2 agonist”.
`O=C(O)Cc1cccc(NC(=O)c2cc(-c3ccccc3)ccc2Cl)c1` [Compound 44, {3-[(4-Chloro-biphenyl-3-carbonyl)-amino]-phenyl}-acetic acid]: the Ki at human EP2 receptor is < 1e-06 M; at human EP4 receptor, > 1e-05 M; on human EP3 receptor it was > 1e-05 M. Further, the EC50 in test [1] was < 0.1 µM. In addition, the “activity (EP2 part)” value in test [1] is recorded as “EP2 agonist”.
In the case of `O=C(O)Cc1cccc(NC(=O)c2cccc(-c3ccccc3)n2)c1` [Compound 45, {3-[(6-Phenyl-pyridine-2-carbonyl)-amino]-phenyl}-acetic acid], the Ki was < 1e-06 M on human EP2 receptor, > 1e-05 M on human EP4 receptor and > 1e-05 M at human EP3 receptor. Also, in test [1], the EC50 is < 0.1 µM. Further, the “activity (EP2 part)” value in test [1] is given as “EP2 agonist”.
`O=C(O)Cc1cccc(NC(=O)c2cccc(-c3ccccc3)c2)c1` [Compound 49, {3-[(Biphenyl-3-carbonyl)-amino]-phenyl}-acetic acid]: the figures for the Ki on human EP2 receptor, on human EP4 receptor and on human EP3 receptor were < 1e-06 M, > 1e-05 M and > 1e-05 M, respectively. Further, the EC50 in test [1] was < 0.1 µM. In addition, the “activity (EP2 part)” value in test [1] was “EP2 agonist”.
For `O=C(O)Cc1cccc(NC(=O)c2cc(-c3ccccc3)ccc2F)c1` [Compound 51, {3-[(4-Fluoro-biphenyl-3-carbonyl)-amino]-phenyl}-acetic acid], the figures for the Ki at human EP2 receptor, at human EP4 receptor and on human EP3 receptor were < 1e-06 M, > 1e-05 M and > 1e-05 M, respectively. For the same molecule, in test [1], the EC50 was < 0.1 µM. The “activity (EP2 part)” value in test [1] is “EP2 agonist”.
With `O=C(O)Cc1cccc(NC(=O)c2cc(F)cc(-c3ccccc3)c2)c1` [Compound 52, {3-[(5-fluoro-biphenyl-3-carbonyl)-amino]-phenyl}-acetic acid], the Ki at human EP2 receptor is < 1e-06 M; on human EP4 receptor it was > 1e-05 M; on human EP3 receptor it was > 1e-05 M. The EC50 in test [1] was < 0.1 µM. Moreover, the “activity (EP2 part)” value in test [1] is reported as “EP2 agonist”.
For the molecule `O=C(O)Cc1cccc(NC(=O)c2csc(-c3ccccc3)n2)c1` [Compound 54, {3-[(2-Phenyl-thiazole-4-carbonyl)-amino]-phenyl}-acetic acid], the Ki on human EP2 receptor was < 1e-06 M; at human EP4 receptor, > 1e-05 M; at human EP3 receptor, > 1e-05 M. Further, the EC50 in test [1] was < 1 µM. The “activity (EP2 part)” value in test [1] is listed as “EP2 agonist”.
With `O=C(O)c1cccc(CNC(=O)c2ccc(-c3ccccc3)o2)c1` [Compound 57, 3-{[(5-Phenyl-furan-2-carbonyl)-amino]-methyl}-benzoic acid], the figures for the Ki on human EP2 receptor, at human EP4 receptor and at human EP3 receptor were < 1e-05 M, > 1e-05 M and > 1e-05 M, respectively. In addition, the EC50 in test [1] is < 1 µM. Further, the “activity (EP2 part)” value in test [1] is recorded as “EP2 Agonist”.
Consider `O=C(O)CCc1cccc(NC(=O)c2ccc(-c3ccccc3)o2)c1` [Compound 62, 3-{3-[(5-Phenyl-furan-2-carbonyl)-amino]-phenyl}-propionic acid], for which the Ki on human EP2 receptor is < 1e-06 M; at human EP4 receptor, > 1e-05 M; at human EP3 receptor, > 1e-05 M. Moreover, in test [1], the EC50 is < 0.1 µM. The “activity (EP2 part)” value in test [1] is recorded as “EP2 agonist”.
With `O=C(O)/C=C/c1cccc(NC(=O)c2ccc(-c3ccc(F)cc3)o2)c1` [Compound 71, 3-(3-{[5-(4-Fluoro-phenyl)-furan-2-carbonyl]-amino}-phenyl)-acrylic acid], the Ki was < 1e-07 M at human EP2 receptor, > 1e-05 M at human EP4 receptor and > 1e-05 M on human EP3 receptor. The “activity (EP2 part)” value in test [1] is “EP2 agonist”.
On to `O=C(Nc1cccc(CCO)c1)c1ccc(-c2ccccc2)o1` [Compound 74], for which the values for the Ki at human EP2 receptor, on human EP4 receptor and at human EP3 receptor were < 1e-05 M, > 1e-05 M and > 1e-05 M, respectively. Also, the EC50 in test [1] was < 10 µM.
